Results from ChEMBL document CHEMBL5126587 (Bioorg Med Chem, 2022).
Active and inactive are the calls of the source. The calls are words filed in the database; no cut-off is given here. Numbered stars: 1 amine (or outer) side, 2 acyl side, 3 side chain; on linkers, the order of the positions; unused ones are H or OH. Peptide text beside a SMILES is read from it. * marks the point of attachment. X1 = NC(=O)c1n[nH]nc1[C@@H]1O[C@H](COC(=O)CCC(=O)NCCCOCCOCCOCCCN*)[C@@H](O)[C@H]1O; Suc = O=C(CCC(=O)[*:2])[*:1]

What was measured:
Hepatitis C virus [1] = type: functional, Hepacivirus hominis, genotype 2a (JFH-AM71), Huh7-J20; settings: dose 0.045 µM; time 72 hrs
Hepatitis C virus [2] = type: functional, Hepacivirus hominis, genotype 2a (JFH-AM71), Huh7-J20; settings: dose 100 µM; time 72 hrs
in vitro [3] = settings: human, Huh7-J20 cells
Zika virus [4] = type: functional, H/PAN/2016/BEI-259634, Vero
Hepatitis C virus [5] = assay: microbe, parasite or virus in culture; settings: genotype 2a (JFH-AM71), Huh7-J20, 72 h
in vitro [6] = settings: human, Huh7.5 cells
Zika virus [7] = type: functional, H/PAN/2016/BEI-259634, Huh7.5; settings: dose 50-100 µM; time 3 day; at 50 to 100 µM
Zika virus [8] = type: functional, H/PAN/2016/BEI-259634, Vero; settings: dose 50-100 µM; time 3 day; at 50 to 100 µM
in vitro [9] = settings: monkey, Vero cells
Zika virus [10] = assay: microbe, parasite or virus in culture; settings: H/PAN/2016/BEI-259634, Huh7.5, 72 h
Zika virus [11] = type: functional
Zika virus [12] = assay: microbe, parasite or virus in culture; settings: H/PAN/2016/BEI-259634, Vero, 72 h
[13] = H/PAN/2016/BEI-259634, Huh7.5, dose 100.0 µM, time 3.0 day

SMILES	Activity (Hepatitis C virus [2]) [%]	selectivity ratio (in vitro [3])	Activity (Zika virus [4]; dose 100 µM, time 3 day) [%]	IC50 (Hepatitis C virus [5]) [µM]	Activity (Zika virus [11]; [13])	other results
CC[C@H](C)[C@H](NC(=O)[C@H](Cc1cnc[nH]1)NC(=O)[C@H](Cc1c[nH]c2ccccc12)NC(=O)[C@H](CO)NC(=O)CCC(=O)NCCCOCCOCCOCCCNC(=O)CCC(=O)OC[C@H]1O[C@@H](c2n[nH]nc2C(N)=O)[C@H](O)[C@@H]1O)C(=O)N[C@@H](CC(N)=O)C(=O)N[C@@H](CCCNC(=N)N)C(=O)N[C@H](C(=O)N[C@@H](C)C(=O)N[C@@H](CC(C)C)C(=O)N[C@@H](CC(N)=O)C(=O)N[C@@H](CO)C(=O)N[C@@H](CC(N)=O)C(=O)N[C@@H](CC(=O)O)C(=O)N[C@@H](CO)C(N)=O)[C@@H](C)O ({X1-Suc}-SWHINRTALNSNDS-NH2)						Activity (Hepatitis C virus [1]): 45%
NC(=O)c1n[nH]nc1[C@@H]1O[C@H](CO)[C@@H](O)[C@H]1O	60	15.7	20	68		
O=C(NCCCO)c1n[nH]nc1[C@@H]1O[C@H](CO)[C@@H](O)[C@H]1O	45	13.4	20	68		
O=C(NO)c1n[nH]nc1[C@@H]1O[C@H](CO)[C@@H](O)[C@H]1O	67	16.8		49.1	Active	selectivity ratio (in vitro [6]): 23.8; Activity (Zika virus [7]): 70%; Activity (Zika virus [8]): 70%; selectivity ratio (in vitro [9]): 29.1; IC50 (Zika virus [10]): 37.3 µM; Activity (Zika virus [4]; H/PAN/2016/BEI-259634, Vero, dose 100.0 µM, time 3.0 day): Active; IC50 (Zika virus [12]): 33.2 µM
CCCNC(=O)c1n[nH]nc1[C@@H]1O[C@H](CO)[C@@H](O)[C@H]1O	45	7.3		100	Active	
N=C(N)NCCC[C@H](NC(=O)[C@H](CCCNC(=N)N)NC(=O)[C@H](CCCNC(=N)N)NC(=O)[C@H](CCC(N)=O)NC(=O)[C@H](CCCNC(=N)N)NC(=O)[C@H](CCCNC(=N)N)NC(=O)[C@H](CCCCN)NC(=O)[C@H](CCCCN)NC(=O)[C@H](CCCNC(=N)N)NC(=O)CNC(=O)[C@H](Cc1ccc(O)cc1)NC(=O)CCC(=O)NCCCOCCOCCOCCCNC(=O)CCC(=O)OC[C@H]1O[C@@H](c2n[nH]nc2C(N)=O)[C@H](O)[C@@H]1O)C(N)=O						Activity (Hepatitis C virus [1]): 45%
CC(=O)OC[C@H]1O[C@@H](c2n[nH]nc2C(N)=O)[C@H](OC(C)=O)[C@@H]1OC(C)=O					Active	
NC(=O)c1ncn([C@@H]2O[C@H](CO)[C@@H](O)[C@H]2O)n1 [RIBAVIRIN]	80	46.8	80	21.8		selectivity ratio (in vitro [6]): 240; selectivity ratio (in vitro [9]): 41.6; IC50 (Zika virus [10]): 6.9 µM; Activity (Zika virus [11]; dose 100 µM, time 3 day): 80%; IC50 (Zika virus [12]): 29.9 µM
